In patent US9125388B2, “Biological control” (Isis Innovation Limited, priority 1999, dated 2015):

Key:
Type in all cases: in vivo, Drosophila melanogaster
[1] = system: Hsp26 tTa, tRe Msl-1^Mpu on the 2nd chromosome; assay: Recombinant chromosome experiments: parents raised on supplement, progeny on normal food, adults by sex (25, 18 or 29° C.); settings: 25° C.
Method: (§1) 40-45 young females and 20-25 young males raised at 25° C. upon food with the indicated tetracycline supplement were allowed to mate, then transferred to normal (tetracycline-free) food after 3-4 days. These flies were transferred to fresh vials of normal food every day for 12 days, then removed on the 13th day. All the vials were incubated at 25° C. while the progeny developed. The numbers of male and female progeny emerging as adults in each vial were recorded.
(§2) A standard range of additive concentrations were used in the following experiments (0.05-20 μg/ml). […] (=“not done”)
(§3) All the preceding experiments were performed at 25° C., the standard temperature for Drosophila culture. However, the insects in the wild would clearly be exposed to varying temperatures, so we investigated the extent to which the efficiency of the system is affected by temperature. As with the recombinant chromosome experiments, 40-45 young virgin females and 20-25 young males raised at 25° C. upon food with the indicated tetracycline supplement were allowed to mate, then transferred to normal (tetracycline-free) food after 3-4 days. These flies were transferred to fresh vials of normal food every day. The numbers of male and female progeny emerging as adults in each vial were recorded. These experiments were performed at either 18° C. or 29° C.

[2] = system: Hsp26 tTa, tRe Msl-2^Nopu on the 2nd chromosome; assay: as above; settings: 25° C.
Method: as §1, §2, §3

[3] = system: Sxl^pe-tTA, tRE-Msl-2^Nopu on the X chromosome; assay: as above; settings: 25° C.
Method: as §1, §2, §3

[4] = system: Sxl^pe-tTA, tRE-Msl-2^Nopu on the third chromosome; assay: as above; settings: 25° C.
Method: as §1, §2, §3

[5] = system: Sxl^pe-tTA, tRE-Ras64B^V12 on the X chromosome; assay: as above
Method: as §1, §2, §3

[6] = system: Sxl^pe-tTA, tRE-Ras64B^V12 on the third chromosome; assay: as above; settings: 25° C.
Method: as §1, §2, §3

[7] = system: Sxlp^e tTa, tRe Msl-1^Mpu on the X chromosome; assay: as above; settings: 25° C.
Method: as §1, §2, §3

[8] = system: Yp3 tTa, tRe Msl-1^Mpu on the 2nd chromosome; assay: as above; settings: 25° C.
Method: as §1
Since there is no meiotic recombination in Drosophila melanogaster males, any of these recombinant chromosomes could be used in a genetic sexing or insect control program, if required.
as §2, §3

[9] = system: Yp3 tTa, tRe Ras64B^V12 on the 2nd chromosome; assay: Recombinant chromosome experiments / maternal transmission of Tc (Table 1): parents raised on supplement, progeny on normal food, adults by sex; settings: 25° C.
Method: as §1, §2, §3
We used a strain of Drosophila in which females, but not males, require Tc for viability.
A strain homozygous for second chromosome insertions of both Yp3-tTA and tRe-Ras64B^V12 was tested for the effect of parental dietary Tc. 40-45 young females and 20-25 young males raised at 25° C. upon food with the indicated tetracycline supplement were allowed to mate, then transferred to normal (tetracycline-free) food after 3-4 days. These flies were transferred to fresh vials of normal food every day for 12 days, and then removed on the 13th day. All the vials were incubated at 25° C. while the progeny developed. The total numbers of male and female progeny emerging as adults were recorded.

[10] = system: Recombinant chromosome stocks; assay: Maintenance of stocks on non-antibiotic tetracycline analogues
Method: Recombinant chromosome stocks can readily be maintained at 25° C. on epioxytetracycline concentrations of 1 μg/ml or anhydrotetracycline concentrations of 0.1 μg/ml, showing that these non-antibiotic tetracycline analogues are effective in repressing tTA responsive gene expression.
as §2

[11] = parents raised on epioxytetracycline 1 μg/ml
[12] = parents raised on epioxytetracycline 5 μg/ml
[13] = parents raised on epioxytetracycline 20 μg/ml
[14] = Epioxytetracycline Conc. 1 μg/ml
[15] = Epioxytetracycline Conc. 5 μg/ml
[16] = Epioxytetracycline Conc. 20 μg/ml

CN(C)[C@H]1C(O)=C(C(N)=O)C(=O)[C@@]2(O)C(O)=C3C(=O)c4c(O)cccc4[C@@](C)(O)[C@H]3[C@H](O)[C@@H]12 [epioxytetracycline]
Female progeny emerging as adults [1, 11]: 0
Male progeny emerging as adults [1, 11]: 1243
Female progeny emerging as adults [1, 12]: 0
Male progeny emerging as adults [1, 12]: 1409
Female progeny emerging as adults [1, 13]: 0
Male progeny emerging as adults [1, 13]: 1373
Female progeny emerging as adults [2, 11]: 0
Male progeny emerging as adults [2, 11]: 1362
Female progeny emerging as adults [2, 12]: 0
Male progeny emerging as adults [2, 12]: 1181
Female progeny emerging as adults [2, 13]: 0
Male progeny emerging as adults [2, 13]: 1403
Female progeny emerging as adults [3, 11]: 0
Male progeny emerging as adults [3, 11]: 1076
Female progeny emerging as adults [3, 12]: 0
Male progeny emerging as adults [3, 12]: 1119
Female progeny emerging as adults [3, 13]: 0
Male progeny emerging as adults [3, 13]: 1159
Female progeny emerging as adults [4, 11]: 0
Male progeny emerging as adults [4, 11]: 1250
Female progeny emerging as adults [4, 12]: 0
Male progeny emerging as adults [4, 12]: 1300
Female progeny emerging as adults [4, 13]: 0
Male progeny emerging as adults [4, 13]: 1364
Female progeny [5, 14]: 0
Male progeny [5, 14]: 1306
Female progeny [5, 15]: 0
Male progeny [5, 15]: 1581
Female progeny [5, 16]: 0
Male progeny [5, 16]: 1495
Female progeny emerging as adults [6, 11]: 0
Male progeny emerging as adults [6, 11]: 1165
Female progeny emerging as adults [6, 12]: 0
Male progeny emerging as adults [6, 12]: 1279
Female progeny emerging as adults [6, 13]: 0
Male progeny emerging as adults [6, 13]: 1257
Female progeny emerging as adults [7, 11]: 0
Male progeny emerging as adults [7, 11]: 1483
Female progeny emerging as adults [7, 12]: 0
Male progeny emerging as adults [7, 12]: 1585
Female progeny emerging as adults [7, 13]: 0
Male progeny emerging as adults [7, 13]: 1565
Female progeny emerging as adults [8, 11]: 0
Male progeny emerging as adults [8, 11]: 1350
Female progeny emerging as adults [8, 12]: 0
Male progeny emerging as adults [8, 12]: 1308
Female progeny emerging as adults [8, 13]: 0
Male progeny emerging as adults [8, 13]: 1343
Female progeny emerging as adults [9, 11]: 0
Male progeny emerging as adults [9, 11]: 1431
Female progeny emerging as adults [9, 12]: 0
Male progeny emerging as adults [9, 12]: 1424
Female progeny emerging as adults [9, 13]: 0
Male progeny emerging as adults [9, 13]: 1387
concentration on which recombinant chromosome stocks can readily be maintained ([10]; 25° C.): 1 µg/mL
repressing tTA responsive gene expression ([10]; 25° C.): effective
concentration required to repress gene expression, compared with tetracycline ([10]; in vivo): slightly higher concentrations are required
stock maintenance at the two lowest concentrations ([10]; standard range of additive concentrations 0.05-20 μg/ml): unable to maintain stock
